These results are taken from ChEMBL document CHEMBL4340578, “11-Aminostrychnine and N-(Strychnine-11-yl)propionamide: Synthesis, Configuration, and Pharmacological Evaluation at Glycine Receptors” (J Nat Prod, 2019).

The target in test [1] is T1, Glycine receptor subunit alpha-1 (Homo sapiens, UniProt P23415).
T1 sequence (P23415 whole entry): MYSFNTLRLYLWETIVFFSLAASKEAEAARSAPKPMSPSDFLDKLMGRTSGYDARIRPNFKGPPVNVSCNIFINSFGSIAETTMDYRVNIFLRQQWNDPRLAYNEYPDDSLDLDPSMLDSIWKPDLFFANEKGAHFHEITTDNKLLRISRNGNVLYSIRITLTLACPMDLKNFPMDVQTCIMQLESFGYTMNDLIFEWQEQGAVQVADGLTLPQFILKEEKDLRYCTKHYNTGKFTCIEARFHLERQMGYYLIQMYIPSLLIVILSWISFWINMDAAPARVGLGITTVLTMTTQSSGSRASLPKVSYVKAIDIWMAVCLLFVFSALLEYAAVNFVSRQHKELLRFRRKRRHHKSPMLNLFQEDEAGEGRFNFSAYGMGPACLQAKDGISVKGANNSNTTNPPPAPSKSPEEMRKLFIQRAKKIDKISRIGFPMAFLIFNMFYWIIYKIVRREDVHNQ
Briefly: Displacement of [3H]strychnine from human glycine receptor subunit alpha-1 expressed in HEK293 cell membranes. (Displacement assays read how much labelled ligand stays bound in the presence of the test substance.)

In test [2] the target is T1, Glycine receptor subunit alpha-1. In words: Antagonist activity at human glycine receptor subunit alpha-1 expressed in human tsA201 cells assessed as reduction in glycine-induced response by fluorescence-based FLIPR membrane potential blue assay. It counts as cell-based.
Test [3] has as its target T2, Glycine receptor (alpha-1/beta) (Homo sapiens, UniProt P23415+P48167). Briefly: Antagonist activity at human glycine receptor subunit alpha-1beta expressed in human tsA201 cells assessed as reduction in glycine-induced response by fluorescence-based FLIPR membrane potential blue assay. It counts as cell-based.
Test [4] has as its target T1, Glycine receptor subunit alpha-1. In words: Antagonist activity at human glycine receptor subunit alpha-1 expressed in HEK293 cells assessed as reduction in glycine-induced whole cell currents by patch-clamp technique. It is filed as cell-based.
The target of test [5] is T2, Glycine receptor (alpha-1/beta). Briefly: Antagonist activity at human glycine receptor subunit alpha-1beta expressed in HEK293 cells assessed as reduction in glycine-induced whole cell currents by patch-clamp technique. It counts as cell-based. A general note: In patch-clamp work, channel activity is measured electrically.

T2 sequence (P48167 whole entry, one chain of several): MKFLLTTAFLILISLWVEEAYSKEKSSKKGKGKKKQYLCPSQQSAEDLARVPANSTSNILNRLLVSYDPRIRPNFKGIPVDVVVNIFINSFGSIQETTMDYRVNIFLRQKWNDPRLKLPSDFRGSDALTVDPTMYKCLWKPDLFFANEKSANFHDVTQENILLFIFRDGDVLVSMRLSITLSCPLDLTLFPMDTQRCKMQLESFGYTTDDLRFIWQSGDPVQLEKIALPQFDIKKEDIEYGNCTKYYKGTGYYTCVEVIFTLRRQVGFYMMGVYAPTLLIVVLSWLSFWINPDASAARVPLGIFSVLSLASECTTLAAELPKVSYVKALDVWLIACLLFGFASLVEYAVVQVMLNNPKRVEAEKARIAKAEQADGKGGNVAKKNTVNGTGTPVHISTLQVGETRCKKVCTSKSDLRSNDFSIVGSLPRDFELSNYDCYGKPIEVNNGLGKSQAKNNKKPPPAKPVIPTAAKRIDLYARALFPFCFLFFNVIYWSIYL

Broadly, the Ki is the dissociation constant of the complex between target and ligand, obtained from inhibition or displacement. Low readings indicate tighter binding, high ones weaker binding. The term IC50 denotes the concentration that inhibits the measured activity by half. The molecule `N[C@@H]1C(=O)N2c3ccccc3[C@@]34CCN5CC6=CCO[C@@H]1[C@@H]([C@H]23)[C@H]6C[C@H]54` displayed an inhibitory constant (Ki) in test [1] of 0.741 µM. In addition, the half-inhibitory concentration (IC50) worked out at 1 µM in test [2], 7.7 µM in test [3] and 0.194 µM in test [4].

In test [1], `O=C1C[C@@H]2OCC=C3CN4CC[C@]56c7ccccc7N1[C@H]5[C@H]2[C@H]3C[C@H]46` [STRYCHNINE] came in with an inhibitory constant (Ki) of 0.123 µM. The IC50 in test [2] worked out at 0.15 µM; in test [3] it was 0.51 µM.

With `CCC(=O)N[C@@H]1C(=O)N2c3ccccc3[C@@]34CCN5CC6=CCO[C@@H]1[C@@H]([C@H]23)[C@H]6C[C@H]54`, the Ki in test [1] worked out at 0.091 µM. Further, the 50% inhibitory concentration (IC50) in test [2] amounted to 0.71 µM; in test [3], 2.2 µM; in test [4] it was 0.173 µM; in test [5], 0.147 µM.
